Results reported in ChEMBL document CHEMBL1201862, “PubChem BioAssay data set” (2004).
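A five-concentration, 48-hour dose response in 96-well plates underlies each endpoint, interpolated linearly between surrounding concentrations. At the GI50, growth is halved.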 The source made the active and inactive calls. Rule as the data show it: active = GI50 up to about 1.1 µM and inactive = higher.

Columns and labels:
Assay in all cases: NCI tumour cell line growth inhibition, 48 h
HOP-62 = test system: HOP-62
UO-31 = test system: UO-31
SF-268 = test system: SF-268
RXF 631 = test system: RXF 631
U-251 = test system: U-251
SK-OV-3 = test system: SK-OV-3
HCC 2998 = test system: HCC 2998
SF-539 = test system: SF-539
ACHN = test system: ACHN
CAKI-1 = test system: CAKI-1
NCI-H23 = test system: NCI-H23
M14 = test system: M14
OVCAR-3 = test system: OVCAR-3
SNB-75 = test system: SNB-75
LOX IMVI = test system: LOX IMVI
Malme-3M = test system: Malme-3M
SR = test system: SR
A549 = test system: A549
TK-10 = test system: TK-10
OVCAR-4 = test system: OVCAR-4
NCI-H460 = test system: NCI-H460
SN12C = test system: SN12C
SNB-19 = test system: SNB-19
MOLT-4 = test system: MOLT-4
HT-29 = test system: HT-29
786-0 = test system: 786-0
KM12 = test system: KM12
UACC-62 = test system: UACC-62
LXFL 529 = test system: LXFL 529
XF498 = test system: XF498
K562 = test system: K562
OVCAR-8 = test system: OVCAR-8
HCT-15 = test system: HCT-15
CCRF-CEM = test system: CCRF-CEM
NCI-H522 = test system: NCI-H522
IGROV-1 = test system: IGROV-1
RXF 393 = test system: RXF 393
UACC-257 = test system: UACC-257
HL-60 = test system: HL-60
DMS-114 = test system: DMS-114
SK-MEL-28 = test system: SK-MEL-28
HCT-116 = test system: HCT-116
EKVX = test system: EKVX
DMS-273 = test system: DMS-273
RPMI-8226 = test system: RPMI-8226
SK-MEL-2 = test system: SK-MEL-2
SF-295 = test system: SF-295
SW-620 = test system: SW-620
COLO 205 = test system: COLO 205
M19-MEL = test system: M19-MEL
OVCAR-5 = test system: OVCAR-5
HOP-92 = test system: HOP-92
SK-MEL-5 = test system: SK-MEL-5
DLD-1 = test system: DLD-1
SNB-78 = test system: SNB-78
A498 = test system: A498
NCI-H226 = test system: NCI-H226
KM-20L2 = test system: KM-20L2

## O=S(=O)(/C=C/C(=C/c1ccccc1)S(=O)(=O)c1ccccc1)c1ccccc1
HOP-62
  GI50: 1.94 µM (inactive)
UO-31
  GI50: 1.82 µM (inactive)
SF-268
  GI50: 1.91 µM (inactive)
RXF 631
  GI50: 1.07 µM (active)
U-251
  GI50: 1.83 µM (inactive)
SK-OV-3
  GI50: 1.44 µM (inactive)
HCC 2998
  GI50: 1.95 µM (inactive)
SF-539
  GI50: 1.77 µM (inactive)
ACHN
  GI50: 1.76 µM (inactive)
CAKI-1
  GI50: 1.51 µM (inactive)
NCI-H23
  GI50: 1.93 µM (inactive)
M14
  GI50: 1.28 µM (inactive)
OVCAR-3
  GI50: 1.73 µM (inactive)
SNB-75
  GI50: 1.87 µM (inactive)
LOX IMVI
  GI50: 0.658 µM (active)
Malme-3M
  GI50: 1.81 µM (inactive)
SR
  GI50: 1.51 µM (inactive)
A549
  GI50: 2.13 µM (inactive)
TK-10
  GI50: 1.85 µM (inactive)
OVCAR-4
  GI50: 1.67 µM (inactive)
NCI-H460
  GI50: 1.78 µM (inactive)
SN12C
  GI50: 1.7 µM (inactive)
SNB-19
  GI50: 1.78 µM (inactive)
MOLT-4
  GI50: 1.52 µM (inactive)
HT-29
  GI50: 1.73 µM (inactive)
786-0
  GI50: 1.77 µM (inactive)
KM12
  GI50: 2.16 µM (inactive)
UACC-62
  GI50: 2.16 µM (inactive)
LXFL 529
  GI50: 1.7 µM (inactive)
XF498
  GI50: 1.7 µM (inactive)
K562
  GI50: 1 µM (active)
OVCAR-8
  GI50: 1.63 µM (inactive)
HCT-15
  GI50: 1.51 µM
CCRF-CEM
  GI50: 0.778 µM (active)
NCI-H522
  GI50: 1.45 µM (inactive)
IGROV-1
  GI50: 4.06 µM (inactive)
RXF 393
  GI50: 1.73 µM (inactive)
UACC-257
  GI50: 1.55 µM (inactive)
HL-60
  GI50: 0.543 µM (active)
DMS-114
  GI50: 1.57 µM (inactive)
SK-MEL-28
  GI50: 1.49 µM (inactive)
HCT-116
  GI50: 1.72 µM (inactive)
EKVX
  GI50: 1.77 µM (inactive)
DMS-273
  GI50: 1.52 µM (inactive)
RPMI-8226
  GI50: 0.61 µM (active)
SK-MEL-2
  GI50: 1.89 µM (inactive)
SF-295
  GI50: 1.66 µM (inactive)
SW-620
  GI50: 2.04 µM (inactive)
COLO 205
  GI50: 2.16 µM (inactive)

## CCOC(=O)C1Oc2ccc([N+](=O)[O-])c3c2C1(O)CCC3 (configuration not stated)
HOP-62
  GI50: > 100 µM (inactive)
UO-31
  GI50: 47.2 µM (inactive)
SF-268
  GI50: > 100 µM (inactive)
M19-MEL
  GI50: > 100 µM (inactive)
RXF 631
  GI50: > 100 µM (inactive)
U-251
  GI50: > 100 µM (inactive)
SK-OV-3
  GI50: > 100 µM (inactive)
HCC 2998
  GI50: > 100 µM (inactive)
SF-539
  GI50: > 100 µM (inactive)
ACHN
  GI50: > 100 µM (inactive)
NCI-H23
  GI50: > 100 µM (inactive)
OVCAR-5
  GI50: > 100 µM (inactive)
HOP-92
  GI50: > 100 µM (inactive)
M14
  GI50: > 100 µM (inactive)
OVCAR-3
  GI50: > 100 µM (inactive)
SNB-75
  GI50: > 100 µM (inactive)
LOX IMVI
  GI50: > 100 µM (inactive)
Malme-3M
  GI50: > 100 µM (inactive)
SK-MEL-5
  GI50: > 100 µM (inactive)
SR
  GI50: > 100 µM (inactive)
A549
  GI50: > 100 µM (inactive)
TK-10
  GI50: > 100 µM (inactive)
OVCAR-4
  GI50: > 100 µM (inactive)
NCI-H460
  GI50: 33.4 µM (inactive)
SN12C
  GI50: > 100 µM (inactive)
SNB-19
  GI50: > 100 µM (inactive)
MOLT-4
  GI50: > 100 µM (inactive)
HT-29
  GI50: > 100 µM (inactive)
786-0
  GI50: > 100 µM (inactive)
KM12
  GI50: > 100 µM (inactive)
UACC-62
  GI50: > 100 µM (inactive)
LXFL 529
  GI50: > 100 µM (inactive)
K562
  GI50: > 100 µM (inactive)
OVCAR-8
  GI50: > 100 µM (inactive)
HCT-15
  GI50: > 100 µM
CCRF-CEM
  GI50: > 100 µM (inactive)
DLD-1
  GI50: > 100 µM (inactive)
NCI-H522
  GI50: > 100 µM (inactive)
IGROV-1
  GI50: > 100 µM (inactive)
RXF 393
  GI50: > 100 µM (inactive)
UACC-257
  GI50: > 100 µM (inactive)
HL-60
  GI50: > 100 µM (inactive)
DMS-114
  GI50: > 100 µM (inactive)
SNB-78
  GI50: > 100 µM (inactive)
SK-MEL-28
  GI50: > 100 µM (inactive)
A498
  GI50: 56.2 µM (inactive)
EKVX
  GI50: > 100 µM (inactive)
DMS-273
  GI50: > 100 µM (inactive)
RPMI-8226
  GI50: > 100 µM (inactive)
NCI-H226
  GI50: > 100 µM (inactive)
SK-MEL-2
  GI50: > 100 µM (inactive)
SF-295
  GI50: > 100 µM (inactive)
SW-620
  GI50: > 100 µM (inactive)
COLO 205
  GI50: > 100 µM (inactive)

## CC1(C)C(=NN=C(N)N)C(C)(C)C1=NN=C(N)N
HOP-62
  GI50: > 10 µM (inactive)
UO-31
  GI50: > 100 µM (inactive)
SF-268
  GI50: > 100 µM (inactive)
M19-MEL
  GI50: > 100 µM (inactive)
RXF 631
  GI50: > 100 µM (inactive)
U-251
  GI50: > 100 µM (inactive)
SK-OV-3
  GI50: > 100 µM (inactive)
HCC 2998
  GI50: > 100 µM (inactive)
SF-539
  GI50: > 100 µM (inactive)
ACHN
  GI50: > 100 µM (inactive)
CAKI-1
  GI50: > 100 µM (inactive)
NCI-H23
  GI50: > 100 µM (inactive)
OVCAR-5
  GI50: > 100 µM (inactive)
HOP-92
  GI50: > 100 µM (inactive)
M14
  GI50: > 100 µM (inactive)
OVCAR-3
  GI50: > 100 µM (inactive)
SNB-75
  GI50: > 100 µM (inactive)
LOX IMVI
  GI50: > 100 µM (inactive)
Malme-3M
  GI50: > 100 µM (inactive)
SK-MEL-5
  GI50: > 100 µM (inactive)
SR
  GI50: > 100 µM (inactive)
A549
  GI50: > 100 µM (inactive)
TK-10
  GI50: > 100 µM (inactive)
OVCAR-4
  GI50: > 100 µM (inactive)
NCI-H460
  GI50: > 100 µM (inactive)
SN12C
  GI50: > 100 µM (inactive)
SNB-19
  GI50: > 100 µM (inactive)
MOLT-4
  GI50: > 100 µM (inactive)
HT-29
  GI50: > 100 µM (inactive)
786-0
  GI50: > 100 µM (inactive)
KM12
  GI50: > 100 µM (inactive)
UACC-62
  GI50: > 100 µM (inactive)
LXFL 529
  GI50: > 100 µM (inactive)
XF498
  GI50: > 100 µM (inactive)
K562
  GI50: > 100 µM (inactive)
OVCAR-8
  GI50: > 100 µM (inactive)
HCT-15
  GI50: > 100 µM
DLD-1
  GI50: > 100 µM (inactive)
NCI-H522
  GI50: > 100 µM (inactive)
IGROV-1
  GI50: > 100 µM (inactive)
RXF 393
  GI50: > 100 µM (inactive)
UACC-257
  GI50: > 100 µM (inactive)
HL-60
  GI50: > 100 µM (inactive)
DMS-114
  GI50: > 100 µM (inactive)
SNB-78
  GI50: > 100 µM (inactive)
SK-MEL-28
  GI50: > 100 µM (inactive)
KM-20L2
  GI50: > 100 µM (inactive)
HCT-116
  GI50: > 100 µM (inactive)
DMS-273
  GI50: > 100 µM (inactive)
RPMI-8226
  GI50: > 100 µM (inactive)
NCI-H226
  GI50: > 100 µM (inactive)
SF-295
  GI50: > 100 µM (inactive)
SW-620
  GI50: > 100 µM (inactive)
COLO 205
  GI50: > 100 µM (inactive)
